Values joined by “and” are separate entries in the source; they are usually repeats but may differ in a detail not shown here. Identical values can stand only once.
Test system: cos-7 cells
Test: DNA transfection: luciferase expression relative to Lipofectamine 2000
Assay type: cell-based
Settings: 300 ng Luciferase DNA per well, luciferase assay after 48 hours
In short: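 cos-7 cells were transfected with 300 ng/well luciferase DNA complexed with lipid at ratios from 2.5 to 25 w/w. Bright-Glo luminescence was read after 48 hours and converted to ng luciferase by standard curve. Data are percent of the Lipofectamine 2000 control (2.5 w/w).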

Row | Compound | Luciferase expression as a percentage of that achieved using Lipofectamine 2000 (lipid/DNA 2.5 w/w) | Luciferase expression as a percentage of that achieved using Lipofectamine 2000 (lipid/DNA 5 w/w) | Luciferase expression as a percentage of that achieved using Lipofectamine 2000 (lipid/DNA 10 w/w) | Luciferase expression as a percentage of that achieved using Lipofectamine 2000 (lipid/DNA 15 w/w) | Luciferase expression as a percentage of that achieved using Lipofectamine 2000 (lipid/DNA 20 w/w) | Luciferase expression as a percentage of that achieved using Lipofectamine 2000 (lipid/DNA 25 w/w)
1 | CCCCCCCCCCCCOC(=O)CCN(CCCN(C)C)CCC(=O)OCCCCCCCCCCCC [LD80] | 0.1% | 0.1% | 3.7% | 6.5% | 7.1% | 2.1%
2 | CCCCCCCCCCCCCCCCCCOC(=O)CCN(CCC(=O)OCCCCCCCCCCCCCCCCCC)CCC1OCCO1 [LH6] | 0.0% | 0.0% | 0.0% | 0.0% | 0.0% | 0.0%
3 | CCCCCCCCCCCCCCCOC(=O)CCN(CCC(=O)OCCCCCCCCCCCCCCC)C[C@H](C)O [LG22] | 0.2% | 0.3% | 0.4% | 0.5% | 0.4% | 0.7%
4 | CCCCCCCCCCCCCCCOC(=O)CC[N+](C)(CCC(=O)OCCCCCCCCCCCCCCC)CC1COC(C)(C)O1.[I-] (centres unmarked) [QG7] | 0.4% | 0.3% | 0.5% | 0.3% | 0.4% | 0.3%
5 | CCCCCCCCCCOC(=O)CCN(CCOC)CCC(=O)OCCCCCCCCCC [LB10] | 0.1% | 0.1% | 0.1% | 0.1% | 0.1% | 0.1%
6 | CCCCCCCCCCOC(=O)CCN(CCCCO)CCC(=O)OCCCCCCCCCC [LB28] | 0.1% | 0.1% | 0.1% | 0.1% | 0.1% | 0.1%
7 | CCCCCCCCCCCCCCOC(=O)CCN(CCC(=O)OCCCCCCCCCCCCCC)CCN(CCO)CCO [LF86] | 21.5% | 17.9% | 19.6% | 21.2% | 10.5% | 10.4%
8 | CCCCCCCCCCOC(=O)CCN(CCOCCO)CCC(=O)OCCCCCCCCCC [LB31] | 1.2% and 0.1% | 0.8% and 0.1% | 8.3% and 0.1% | 1.9% and 0.1% | 1.3% and 0.1% | 4.2% and 0.1%
9 | CCCCCCCCCCCCOC(=O)CCN(CCC(=O)OCCCCCCCCCCCC)CCC1CCCN1C (centres unmarked) [LD77] | 0.1% | 0.1% | 6.9% | 11.1% | 6.4% | 2.9%
10 | CCCCCCCCCCCCOC(=O)CCN(CCO)CCN(CCO)CCC(=O)OCCCCCCCCCCCC [LD103] | 11.6% | 17.2% | 24.4% | 27.1% | 12.3% | 6.6%
11 | CCCCCCCCCCCCCCOC(=O)CCN(CCC(=O)OCCCCCCCCCCCCCC)CCN1CCOCC1 [LF90] | 0.4% and 0.5% | 0.5% and 0.4% | 0.3% and 0.7% | 1.3% and 0.4% | 1.1% and 0.4% | 1.5% and 0.4%
12 | CCCCCCCCCCCCCCOC(=O)CCN(CCC(=O)OCCCCCCCCCCCCCC)C(C)CN(C)C (centres unmarked) [LF79] | 0.1% | 0.3% | 0.3% | 0.3% | 0.3% | 0.3%
13 | CCCCCCCCCCCCOC(=O)CCN(C)CCCN(C)CCC(=O)OCCCCCCCCCCCC [LD63] | 0.7% | 0.8% | 0.3% | 0.3% | 0.4% | 0.6%
14 | CCCCCCCCCCCCCCCOC(=O)CCN(CCC(=O)OCCCCCCCCCCCCCCC)C(CC)(CO)CO [LG34] |  |  | 1.4% | 0.8% |  | 
15 | CCCCCCCCCCCCCCCCCCOC(=O)CCN(CCC(=O)OCCCCCCCCCCCCCCCCCC)CC1CCCO1 (centres unmarked) [LH15] | 0.0% | 0.0% | 0.0% | 0.0% | 0.0% | 0.0%
16 | CCCCCCCCCCCCCCOC(=O)CCN(CCC(=O)OCCCCCCCCCCCCCC)C[C@@H](C)O [LF21] | 0.4% | 0.4% | 0.4% | 0.4% | 0.4% | 0.4%

Source: patent US9006487B2, “Amine-containing lipids and uses thereof” (Massachusetts Institute of Technology, priority 2005, dated 2015)
